In patent publication US5525626A (priority 1989, dated 1996):
pIC50: −log10 of the molar value.

Tests used:
Assay in all cases: 3H-thymidine assay
Type in all cases: cell-based
[1] = test system: Tp 242 MG glioblastoma cells; details: Homo sapiens
[2] = test system: Tp 483 MG glioblastoma cells
[3] = test system: Tp 410 N neuroblastoma cells; details: Homo sapiens, Neuroblastoma cell
Daudi leukemic cells = details: Homo sapiens
At T 20 = details: Mus musculus, AtT20
Method: (§1) The cell lines were cultivated as indicated in Example 1.
(§2) The antiproliferative effect of the 1,2-benzopyrone derivatives according to the invention on the tumor cell lines in each case was shown with the help of the ^3 H-thymidine insertion and with reference to growth curves.
(§3) In a 24-well-plate, in each case 10^4 cells of the line to be investigated were inoculated per well. Approximately 48 hours later the cells were half-confluent; the medium was then changed and replaced by a medium containing the active substance in question (cf Table 3). After a further 48 hours 0.25 μCi ^3 H-thymidine (Ammersham) was added to each well and the cells were incubated for a further 24 hours. Subsequently the cultures were washed twice with ice-cold PBS and the high-molecular-weight ^3 H-radioactivity was precipitated with 5% trichloroacetic acid for one hour at 4° C. After the washing of the cells in PBS the ^3 H-radioactivity was solubilized with 0.3M NaOH and measured in the counter. The growth-inhibition was determined by comparing the thymidine insertion of the cells treated with active substance with untreated cells.
(§4) The active substance concentration in each case was so chosen that ^3 H-thymidine insertion was 50% inhibited. The active substance concentrations used under this aspect for the active substances and cell lines in each case are given in table 4 below in μM/ml, […]

K-562 leukemic cells = details: Homo sapiens, K562
Method: as §1, §2, §3, §4

[4] = test system: Z-R-75-1 breast cancer cells; details: Homo sapiens, ZR-75-1
[5] = test system: GV-1 prostate carcinoma cells
A-375 melanoma cells = details: Homo sapiens, A-375
G-361 melanoma cells = details: Homo sapiens, G-361
[6] = 1 μM/ml, read-out: 3H-thymidine insertion (%) of control
[7] = 2 μM/ml, read-out: 3H-thymidine insertion (%) of control
[8] = 4 μM/ml, read-out: 3H-thymidine insertion (%) of control
[9] = 8 μM/ml, read-out: 3H-thymidine insertion (%) of control
[10] = 16 μM/ml, read-out: 3H-thymidine insertion (%) of control
[11] = 25 μM/ml, read-out: 3H-thymidine insertion (%) of control
[12] = 50 μM/ml, read-out: 3H-thymidine insertion (%) of control
[13] = 100 μM/ml, read-out: 3H-thymidine insertion (%) of control
[14] = 250 μM/ml, read-out: 3H-thymidine insertion (%) of control
[15] = 500 μM/ml, read-out: 3H-thymidine insertion (%) of control
[16] = Table 4, read-out: active substance concentration at which 3H-thymidine insertion was 50% inhibited
[17] = 1 μM/ml, read-out: 3H-thymidine tracer (%) of control
[18] = 2 μM/ml, read-out: 3H-thymidine tracer (%) of control
[19] = 4 μM/ml, read-out: 3H-thymidine tracer (%) of control
[20] = 8 μM/ml, read-out: 3H-thymidine tracer (%) of control
[21] = 16 μM/ml, read-out: 3H-thymidine tracer (%) of control
[22] = 25 μM/ml, read-out: 3H-thymidine tracer (%) of control
[23] = 50 μM/ml, read-out: 3H-thymidine tracer (%) of control
[24] = 100 μM/ml, read-out: 3H-thymidine tracer (%) of control
[25] = 250 μM/ml, read-out: 3H-thymidine tracer (%) of control
[26] = 500 μM/ml, read-out: 3H-thymidine tracer (%) of control
[27] = Table 4, *: maximum usable dosage, no 50% inhibition, read-out: active substance concentration at which 3H-thymidine insertion was 50% inhibited

COc1cc2ccc(=O)oc2cc1O [Scopoletin, 6-methoxy-7-hydroxy-1,2-benzopyrone]
activity at 1 µM [1, 6]: 99% | activity at 2 µM [1, 7]: 93% | activity at 4 µM [1, 8]: 85% | activity at 8 µM [1, 9]: 87% | activity at 16 µM [1, 10]: 84% | activity at 25 µM [1, 11]: 79% | activity at 50 µM [1, 12]: 74% | activity at 100 µM [1, 13]: 61% | activity at 250 µM [1, 14]: 52% | activity at 500 µM [1, 15]: 48% | pIC50 [1, 16]: 3.30 | activity at 1 µM [2, 6]: 100% | activity at 2 µM [2, 7]: 95% | activity at 4 µM [2, 8]: 89% | activity at 8 µM [2, 9]: 86% | activity at 16 µM [2, 10]: 78% | activity at 25 µM [2, 11]: 72% | activity at 50 µM [2, 12]: 67% | activity at 100 µM [2, 13]: 63% | activity at 250 µM [2, 14]: 54% | activity at 500 µM [2, 15]: 50% | pIC50 [2, 16]: 3.30 | activity at 1 µM [3, 6]: 100% | activity at 2 µM [3, 7]: 98% | activity at 4 µM [3, 8]: 95% | activity at 8 µM [3, 9]: 87% | activity at 16 µM [3, 10]: 82% | activity at 25 µM [3, 11]: 74% | activity at 50 µM [3, 12]: 71% | activity at 100 µM [3, 13]: 65% | activity at 250 µM [3, 14]: 62% | activity at 500 µM [3, 15]: 54% | pIC50 [3, 16]: 3.30 | activity at 1 µM (Daudi leukemic cells; [17]): 96% | activity at 2 µM (Daudi leukemic cells; [18]): 94% | activity at 4 µM (Daudi leukemic cells; [19]): 80% | activity at 8 µM (Daudi leukemic cells; [20]): 79% | activity at 16 µM (Daudi leukemic cells; [21]): 71% | activity at 25 µM (Daudi leukemic cells; [22]): 64% | activity at 50 µM (Daudi leukemic cells; [23]): 58% | activity at 100 µM (Daudi leukemic cells; [24]): 53% | activity at 250 µM (Daudi leukemic cells; [25]): 49% | activity at 500 µM (Daudi leukemic cells; [26]): 41% | pIC50 (Daudi leukemic cells; [16]): 3.60 | activity at 1 µM (At T 20; [17]): 98% | activity at 2 µM (At T 20; [18]): 94% | activity at 4 µM (At T 20; [19]): 89% | activity at 8 µM (At T 20; [20]): 84% | activity at 16 µM (At T 20; [21]): 76% | activity at 25 µM (At T 20; [22]): 68% | activity at 50 µM (At T 20; [23]): 62% | activity at 100 µM (At T 20; [24]): 57% | activity at 250 µM (At T 20; [25]): 49% | activity at 500 µM (At T 20; [26]): 43% | pIC50 (At T 20; [16]): 3.60 | activity at 1 µM (K-562 leukemic cells; [17]): 100% | activity at 2 µM (K-562 leukemic cells; [18]): 97% | activity at 4 µM (K-562 leukemic cells; [19]): 90% | activity at 8 µM (K-562 leukemic cells; [20]): 85% | activity at 16 µM (K-562 leukemic cells; [21]): 82% | activity at 25 µM (K-562 leukemic cells; [22]): 71% | activity at 50 µM (K-562 leukemic cells; [23]): 66% | activity at 100 µM (K-562 leukemic cells; [24]): 52% | activity at 250 µM (K-562 leukemic cells; [25]): 47% | activity at 500 µM (K-562 leukemic cells; [26]): 44% | pIC50 (K-562 leukemic cells; [16]): 3.76 | activity at 1 µM [4, 17]: 98% | activity at 2 µM [4, 18]: 96% | activity at 4 µM [4, 19]: 91% | activity at 8 µM [4, 20]: 83% | activity at 16 µM [4, 21]: 79% | activity at 25 µM [4, 22]: 72% | activity at 50 µM [4, 23]: 64% | activity at 100 µM [4, 24]: 57% | activity at 250 µM [4, 25]: 55% | activity at 500 µM [4, 26]: 50% | pIC50 [4, 27]: < 3.30 | activity at 1 µM [5, 17]: 100% | activity at 2 µM [5, 18]: 98% | activity at 4 µM [5, 19]: 91% | activity at 8 µM [5, 20]: 88% | activity at 16 µM [5, 21]: 82% | activity at 25 µM [5, 22]: 78% | activity at 50 µM [5, 23]: 71% | activity at 100 µM [5, 24]: 63% | activity at 250 µM [5, 25]: 61% | activity at 500 µM [5, 26]: 51% | pIC50 [5, 16]: 3.30 | activity at 1 µM (A-375 melanoma cells; [17]): 99% | activity at 2 µM (A-375 melanoma cells; [18]): 96% | activity at 4 µM (A-375 melanoma cells; [19]): 90% | activity at 8 µM (A-375 melanoma cells; [20]): 89% | activity at 25 µM (A-375 melanoma cells; [22]): 87% | activity at 50 µM (A-375 melanoma cells; [23]): 78% | activity at 100 µM (A-375 melanoma cells; [24]): 75% | activity at 250 µM (A-375 melanoma cells; [25]): 75% | activity at 500 µM (A-375 melanoma cells; [26]): 70% | pIC50 (A-375 melanoma cells; [27]): < 3.30 | activity at 1 µM (G-361 melanoma cells; [17]): 100% | activity at 2 µM (G-361 melanoma cells; [18]): 98% | activity at 4 µM (G-361 melanoma cells; [19]): 96% | activity at 8 µM (G-361 melanoma cells; [20]): 88% | activity at 25 µM (G-361 melanoma cells; [22]): 85% | activity at 50 µM (G-361 melanoma cells; [23]): 85% | activity at 100 µM (G-361 melanoma cells; [24]): 76% | activity at 250 µM (G-361 melanoma cells; [25]): 71% | activity at 500 µM (G-361 melanoma cells; [26]): 67% | pIC50 (G-361 melanoma cells; [27]): < 3.30
